Values joined by “and” are separate entries in the source; they are usually repeats but may differ in a detail not shown here. Equal values may be shown once. “Also recorded” adds a separate entry of the source.
Columns and labels:
[1] = target: T1, KRAS^G12D-GMPPnP / RAF1-RBD-GFP interaction (Homo sapiens, UniProt P01116, G12D); assay: KRAS^G12D/RAF1-RBD interaction assay (plate coated with KRAS, RAF1-RBD-GFP fluorescence); type: biochemical
T1 construct: and KRas4B(1-169)[G12D], optimised for expression in E.coli; His6 (N); Avi tag (biotinylated with BirA) (N); TEV site (N); made in house; host or cells: E. coli BL21(DE3) Gold for KRAS; E. coli BL21(DE3) for RAF1-RBD-GFP
Experimental: Phosphoestamers O1–O6 were resynthesised on a 1 μmol scale using the DNA synthesiser and the yields were determined by manually cleaving the final DMT protecting group of each molecule and quantifying the DMT cation by UV-visible spectroscopy (ESI Section 2.4 ^†). The achievement of desired length and purity was confirmed by polyacrylamide gel electrophoresis (Fig. 5a). The resynthesised phosphoestamers were purified away from smaller molecules using C18 spin tips. To ensure the assay was viable, a positive control Ch-3 (Fig. 5a) known to disrupt KRAS^G12D interactions[50] was synthesised. […] Any KRAS sites not blocked by the phosphoestamers would interact with the RAF1-GFP and result in a fluorescent signal which would be detected. In this assay, we first established that both KRAS^G12D-GMPPnP and RAF1-RBD-GFP were required to give a fluorescence signal.
To the 96 well plate, 100 µL was added to each well containing 2 µg/mL KRASG12D-GMPPnP or KRASWT-GMPPnP in coating buffer (see buffers, page 3). […] The emission spectrum o f GFP (490 – 560 nm) was measured on the plate reader.
GraphPad Prism (9.5.1) was used to calculate the area under the curve (AUC) of the emission spectra between 490 and 540 nm. IC50 values were calculated on GraphPad Prism, using the non-linea r regression fit (Sigmoidal, 4PL, X is concentration) analysis. […]

[2] = target: T2, KRAS^WT-GMPPnP / RAF1-GFP interaction (Homo sapiens, UniProt P01116); assay: KRAS^WT/RAF1-RBD interaction assay (same plate assay); type: biochemical; settings: 'high' and 'low' concentrations, approximately IC50 ÷ 3 and IC50 × 3
T2 construct: and KRas4B(1-169)[G12D], optimised for expression in E.coli; His6 (N); Avi tag (biotinylated with BirA) (N); TEV site (N); made in house; host or cells: E. coli BL21(DE3) Gold for KRAS; E. coli BL21(DE3) for RAF1-RBD-GFP
Experimental: Since four phosphoestamers were determined to have consistent dissociation activity between KRAS^G12D-GMPPnP and RAF1-GFP, we then used the same assay to determine whether these molecules would have any activity against KRAS^WT-GMPPnP or whether they would be selective for the mutant form (Fig. 5e).
To the 96 well plate, 100 µL was added to each well containing 2 µg/mL KRASG12D-GMPPnP or KRASWT-GMPPnP in coating buffer (see buffers, page 3). The plate was shaken on a plate rotator at 300 rpm and left to incubate at 4 °C overnight. After incubation, the KRASG12D/WT solution was removed, and the plate was then washed with 100 µL per well of blocking buffer twice. 100 µL of blocking buffer was then added per well and the plate was incubated at 37 °C for one hour. […] The emission spectrum o f GFP (490 – 560 nm) was measured on the plate reader.
GraphPad Prism (9.5.1) was used to calculate the area under the curve (AUC) of the emission spectra between 490 and 540 nm. IC50 values were calculated on GraphPad Prism, using the non-linea r regression fit (Sigmoidal, 4PL, X is concentration) analysis.
To the well plate, 100 µL was added to each well containing 2 µg/mL of the 4:1 conjugate of KRASG12D-G M PP nP -streptavidin fluorescein in coating buffer. […] The emission spectrum of fluorescein (500 – 600 nm) was measured using the plate reader. […]

[3] = system: KRAS^G12D (inactive GDP-form); set-up: method as in PMID 34889605; settings: binds to the inactive GDP-form of the protein; cited from earlier work

## NDI-C12-C12-C12-NDI-BPA [Phosphoestamer O2]
[1]; AUC of GFP emission 490-540 nm, three biological repeats (O4 n = 4)
  IC50: < 100 nM and 70.9 nM
[2]
  Effect on KRAS^WT-GMPPnP/RAF1-GFP interaction: only O5 caused a decrease in fluorescent signal; also recorded: inactive

## COc1cccc(-c2ccc(Nc3ccc(CN(C)C)cc3)c(OC)c2F)c1 [Ch-3, reference compound]
[1]; positive control, n = 3
  IC50: 6350 ± 200 nM

## C#Cc1c(F)ccc2cc(O)cc(-c3ncc4c(N5CC6CCC(C5)N6)nc(OC[C@@]56CCCN5C[C@H](F)C6)nc4c3F)c12 [MRTX1133]
[3]
  IC50: 5 nM

Reference: publication PMC11588021, “Sequence-defined phosphoestamers for selective inhibition of the KRAS^G12D/RAF1 interaction” (Chemical Science, 2024)
